These results are taken from PMC12645083, “Microwave‐Enhanced Synthesis of 2‐Styrylquinoline‐4‐Carboxamides With Promising Anti‐Lymphoma Activity” (Archiv Der Pharmazie, 2025).

Where two headings read alike, the source gives them in different places. Bounds are passed on as bounds.

Assay [1] deals with peripheral blood mononuclear cells (PBMCs). The experiment in a line: Antiproliferative/cytotoxicity assay on PBMCs from a healthy donor. The settings on record: Homo sapiens, PBMC. It is filed as cell-based. The method, then:
To assess the potential toxicity of the most promising quinoline derivatives 4i, 4n, 4s, and 4ah, an antiproliferative assay was performed, using peripheral blood mononuclear cells (PBMCs) isolated from a healthy donor.
To test the newly synthesized compounds, various human cell lines were employed. HD‐MB03 cells were purchased from DSMZ (Braunschweig, Germany), while A549, MDA‐MB‐231, RPMI‐8420, SU‐DHL‐8, TOLEDO, VL51, SU‐DHL‐1, SU‐DHL‐18, and KM‐H2 were obtained from ATCC (Manassas, VA, USA). Cells were cultured in DMEM (for MDA‐MB‐231 and A549) or RPMI‐1640 (for RPMI‐8420, SU‐DHL‐8, TOLEDO, VL51, SU‐DHL‐1, SU‐DHL‐18, KM‐H2, and HD‐MB03) media (Gibco, Milan, Italy). Both media were supplemented with 115 units/mL penicillin G (Gibco, Milan, Italy), 115 µg/mL streptomycin (Invitrogen, Milan, Italy), and 10% fetal bovine serum (Invitrogen, Milan, Italy). Peripheral blood mononuclear cells (PBMCs) were isolated from healthy donors as previously described. For cytotoxicity assays, PBMCs were resuspended at 5 × 10⁵ cells/mL in complete RPMI medium with or without 2.5 µg/mL phytohemagglutinin (PHA) (Irvine Scientific) to stimulate T‐cell activation and proliferation. All cell lines were maintained at 37°C in a humidified atmosphere containing 5% CO₂. All compounds were dissolved in DMSO at a 10 mM stock concentration. For dose–response assays, cells were seeded in 96‐well plates at densities optimized for each cell line: HD‐MB03 at 10,000 cells/well, A549 at 4000 cells/well, and MDA‐MB‐231 at 7000 cells/well. All other cell lines were seeded at 20,000 cells/well in a final volume of 100 µL per well. After 24 h, cells were treated with a 6‐point serial dilution of compounds starting from 10 µM, in triplicate for statistical analysis. Seventy‐2 h posttreatment, 10 µL of resazurin solution (100 µg/mL) was added to each well, and cells were incubated for an additional 3–6 h. Fluorescence was measured using a Spark 10 M microplate reader (Tecan Group Ltd., Männedorf, Switzerland) with excitation at 535 nm and emission at 600 nm. The IC₅₀ was defined as the concentration of compound required to inhibit cell proliferation by 50% compared to cells treated with the highest DMSO concentration.
To test the newly synthesized compounds, various human cell lines were employed. HD-MB03 cells were purchased from DSMZ (Braunschweig, Germany), while A549, MDA-MB-231, RPMI-8420, SU-DHL-8, TOLEDO, VL51, SU-DHL-1, SU-DHL-18, and KM-H2 were obtained from ATCC (Manassas, VA, USA). Cells were cultured in DMEM (for MDA-MB-231 and A549) or RPMI-1640 (for RPMI-8420, SU-DHL-8, TOLEDO, VL51, SU-DHL-1, SU-DHL-18, KM-H2, and HD-MB03) media (Gibco, Milan, Italy). Both media were supplemented with 115 units/mL penicillin G (Gibco, Milan, Italy), 115 µg/mL streptomycin (Invitrogen, Milan, Italy), and 10% fetal bovine serum (Invitrogen, Milan, Italy). Peripheral blood mononuclear cells (PBMCs) were isolated from healthy donors as previously described. ^[1] For cytotoxicity assays, PBMCs were resuspended at 5 × 10⁵ cells/mL in complete RPMI medium with or without 2.5 µg/mL phytohemagglutinin (PHA) (Irvine Scientific) to stimulate T cell activation and proliferation. All cell lines were maintained at 37 °C in a humidified atmosphere containing 5% CO₂. All compounds were dissolved in DMSO at a 10 mM stock concentration. For dose–response assays, cells were seeded in 96-well plates at densities optimized for each cell line: HD-MB03 at 10,000 cells/well, A549 at 4,000 cells/well, and MDA-MB-231 at 7,000 cells/well. All other cell lines were seeded at 20,000 cells/well in a final volume of 100 µL per well. After 24 hours, cells were treated with a 6-point serial dilution of compounds starting from 10 µM, in triplicate for statistical analysis. Seventy-two hours post-treatment, 10 µL of resazurin solution (100 µg/mL) was added to each well, and cells were incubated for an additional 3–6 hours. […]

Assay [2] relates to VL51. Description: EdU incorporation assay (DNA synthesis). The note with it: 1 and 2 µM, 48 h. It is filed as cell-based, human. The method, then:
(§1) For evaluation of DNA synthesis, cells were plated in 12‐well plates at 0.2 × 10⁶ cells/mL in 1 mL of complete medium. After 24 h, cells were treated with the indicated compound concentrations. EdU (5‐ethynyl‐2‐deoxyuridine) incorporation was performed according to the Baseclick EdU Flow Cytometry Kit instructions (Sigma Aldrich, St. Louis, MO, USA) as previously described. EdU‐FITC incorporation was detected using a CytoFLEX flow cytometer (Beckman Coulter, Brea, CA, USA) and analyzed with FlowJo software v.10.7.1 (BD Biosciences).

The subject of assay [3] is TOLEDO. The experiment in a line: EdU incorporation assay (DNA synthesis). It is filed as cell-based, human. The note with it: 1 and 2 µM, 48 h. The method, then:
as §1

The subject of assay [4] is TOLEDO. The experiment in a line: Cell-cycle analysis (flow cytometry). It is filed as cell-based, human. The settings on record: 2 µM, 48 h. The method, then:
Cells were plated in 12‐well plates at 0.2 × 10⁶ cells/mL in 1 mL of complete medium. After 24 h, cells were treated with the specified compound concentrations. […] Cells were then stained and processed as previously described. Data acquisition was performed using a Coulter Cytomics FC500 flow cytometer (Beckman Coulter).
On the technique in general: A flow cytometer gives signals particle by particle.

Assay [5] deals with VL51. The experiment in a line: Apoptosis assay, Annexin V/PI staining. It is filed as cell-based, human. The note with it: 2 µM, 48 h. The method, then:
(§2) For apoptosis evaluation, cells were plated in 12‐well plates at 0.2 × 10⁶ cells/mL in 1 mL of complete medium. After 24 h, cells were treated with the indicated compound concentrations. After 48 h, cells were harvested, centrifuged, and stained with Annexin V‐FITC and propidium iodide (PI) using the Annexin‐V Fluos kit (Roche Diagnostics), following the manufacturer's instructions. Fluorescence was analyzed using a Coulter Cytomics FC500 flow cytometer (Beckman Coulter) with detection in the FL1 and FL3 channels, respectively.

Assay [6] deals with TOLEDO. The experiment in a line: Apoptosis assay, Annexin V/PI staining. It is filed as cell-based, human. The settings on record: 2 µM, 48 h. The method, then:
as §2

Assay [7] deals with VL51. The experiment in a line: Cell-cycle analysis (flow cytometry). It is filed as cell-based, human. The settings on record: 2 µM, 48 h. The method, then: Cells were plated in 12‐well plates at 0.2 × 10⁶ cells/mL in 1 mL of complete medium. After 24 h, cells were treated with the specified compound concentrations. Following an additional 24 h, cells were harvested, centrifuged, and fixed in 70% ice‐cold ethanol. Cells were then stained and processed as previously described. Data acquisition was performed using a Coulter Cytomics FC500 flow cytometer (Beckman Coulter).

Where [8] appears, read: PBMCs stimulated with 2.5 µg/mL PHA, read-out: IC50 phytohemagglutinin-stimulated PBMCs.
Where [9] appears, read: resting PBMCs from a healthy donor, read-out: IC50 resting PBMCs.

In the case of `O=C(Nc1ccc([N+](=O)[O-])cc1)c1cc(/C=C/c2ccccc2)nc2ccccc12` [4i, (E)-N-(4-nitrophenyl)-2-styrylquinoline-4-carboxamide], the IC50 in assay [1] (setting [8]) and in assay [1] (setting [9]) was above 10 µM throughout. For the same molecule, the “DNA synthesis (EdU incorporation)” value in the assay with VL51 [2] is “marked, dose‐dependent reduction in DNA synthesis”; in the assay on TOLEDO [3], “marked, dose‐dependent reduction in DNA synthesis”. Also, the Cell-cycle distribution entry in the assay with TOLEDO [4] and with VL51 [7] was “significant accumulation of cells in the G₂/M phase” in each case. Besides, the “Mode of cell death (Annexin V/PI)” value with VL51 [5] is “induced late apoptosis and necrosis”; in the assay with TOLEDO [6], “induced late apoptosis and necrosis”.

As for `COc1cc(/C=C/c2cc(C(=O)Nc3c(C)cccc3C)c3ccccc3n2)cc(OC)c1OC` [4n, (E)-N-(2,6-dimethylphenyl)-2-(3,4,5-trimethoxystyryl)quinoline-4-carboxamide], the IC50 in assay [1] (setting [8]) and in assay [1] (setting [9]) was above 10 µM throughout.

As for `O=C(Nc1ccc(Cl)cc1)c1cc(/C=C/c2ccccc2[N+](=O)[O-])nc2ccccc12` [4ah, (E)-N-(4-chlorophenyl)-2-(2-nitrostyryl)quinoline-4-carboxamide], the IC50 in assay [1] (setting [8]) and in assay [1] (setting [9]) was above 10 µM throughout.

For `COc1cc(/C=C/c2cc(C(=O)Nc3ccc([N+](=O)[O-])cc3)c3ccccc3n2)cc(OC)c1OC` [4s, (E)-N-(4-nitrophenyl)-2-(3,4,5-trimethoxystyryl)quinoline-4-carboxamide], the IC50 in assay [1] (setting [8]) and in assay [1] (setting [9]) was above 10 µM throughout.

In general, IC50 refers to the concentration that inhibits the measured activity by half.
